Assay results: PubChem BioAssay (NCI)
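Growth conditions: 96-well plates. Treatment: test compound, 48 hours, 5 concentrations. Analysis: linear interpolation between bracketing concentrations; unreached endpoints set to highest concentration. TGI: total growth inhibition.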

Tests used:
Experiment in all cases: NCI tumour cell line growth inhibition, 48 h
[1] = test system: HCC-2998 colon
[2] = test system: 786-0 renal
[3] = test system: SK-MEL-2 melanoma
[4] = test system: UACC-257 melanoma
[5] = test system: HCT-116 colon
[6] = test system: UACC-62 melanoma
[7] = test system: MDA-MB-435
[8] = test system: LOX IMVI melanoma
[9] = test system: SF-539 CNS
[10] = test system: SW-620 colon
[11] = test system: KM12 colon

SMILES	TGI [1]	TGI [2]	TGI [3]	TGI [4]	TGI [5]	TGI [6]	TGI [7]	TGI [8]	TGI [9]	TGI [10]	TGI [11]
Cc1cc(O)c(C(C)C)cc1N=Cc1ccccc1O	14.7 µM	26.3 µM	25.4 µM	24.4 µM	13.5 µM	21.7 µM	4.37 µM	> 84.3 µM	49.3 µM	> 20.4 µM	14 µM
Nc1ccc(-c2nc3ccccc3s2)cc1Br	> 100 µM	> 100 µM	> 100 µM	> 100 µM		> 100 µM	> 100 µM	> 100 µM	> 78.9 µM	> 100 µM	> 100 µM
CC1CN=C(c2ccc(COc3ccc(C4=NCC(C)N4)cc3)cc2)N1 (centres undefined)	> 100 µM	> 100 µM	58.4 µM	68.3 µM	> 100 µM	> 100 µM	> 100 µM	> 100 µM	> 100 µM	> 100 µM	> 100 µM
Brc1cccc[n+]1-c1ccc2cc(-[n+]3ccccc3Br)ccc2c1	> 100 µM	69 µM	> 100 µM	> 100 µM	> 100 µM	> 100 µM	> 100 µM	34.7 µM	40.1 µM	> 100 µM	40 µM
CC(C)c1cccc(C(C)C)c1OS(=O)(=O)NC(=O)OC(C(F)(F)F)C(F)(F)F	> 100 µM		> 100 µM	> 100 µM	> 100 µM		> 100 µM	> 100 µM	> 100 µM	> 100 µM	> 100 µM
CC1(C)CC2C(C1=O)C1(C)CCCC2(C)C1=O (centres undefined)	> 100 µM	> 100 µM	> 100 µM	> 100 µM	> 100 µM	> 100 µM	> 100 µM	> 100 µM	> 100 µM	> 100 µM	> 100 µM
O=C(O)CC(O)(C(=O)O)C(O)C(=O)O (centres undefined)	> 1000 µM	> 1000 µM	> 1000 µM	> 1000 µM	> 1000 µM	> 1000 µM	> 1000 µM	> 1000 µM	> 1000 µM	> 1000 µM	> 1000 µM
CC1(C)c2ccccc2C(O)C12CCC(=O)CC2 (centres undefined)	> 100 µM	> 100 µM	> 100 µM	> 100 µM	23.2 µM	> 100 µM	> 100 µM	> 100 µM	> 100 µM	> 100 µM	> 100 µM
C=C1c2nc3ccccc3n2C=C(c2ccc(OC)cc2)N1c1ccc(OCCN2CCOCC2)cc1	> 100 µM	> 100 µM	> 52.2 µM	17.6 µM	> 100 µM	> 100 µM	> 100 µM	> 100 µM	> 100 µM	> 100 µM	> 100 µM
O=C(Oc1cccc(Cl)c1)c1cc2cc(CCl)ccc2oc1=O	34.4 µM	> 100 µM	28.9 µM	31.3 µM	> 100 µM	28.2 µM	> 100 µM	> 100 µM	> 100 µM	> 100 µM	> 100 µM
CC1=CC(=O)/C(=C/n2c(=S)[nH]c3ccccc32)C(=O)O1	> 100 µM	> 100 µM	> 100 µM	> 100 µM	> 100 µM	> 100 µM	> 100 µM	> 100 µM	> 100 µM	> 100 µM	> 100 µM
COCCNC1CCC2(SCCS2)c2[nH]c3ccccc3c21 (centres undefined)	> 100 µM	> 100 µM	> 100 µM	39.5 µM	> 100 µM		62.1 µM	36 µM	50.7 µM	> 100 µM	40.5 µM
C#CCCCC(=O)N(C(=O)CS(=O)CC)c1ccccc1 (centres undefined)	> 100 µM	> 100 µM	> 100 µM	> 100 µM	> 100 µM	> 100 µM	> 100 µM	> 100 µM	> 100 µM	> 100 µM	> 100 µM
OCC(O)C(O)C(O)C(O)/C=N/Nc1nc(O)c(/C=C2\C=Nc3ccccc32)[nH]1 (centres undefined)	> 100 µM	> 100 µM	97.7 µM	> 100 µM	> 100 µM	> 100 µM	> 100 µM	> 100 µM	> 100 µM	> 100 µM	> 100 µM
CC[C@H](C)C1=C(OC(C)=O)[N@+]2([O-])Oc3ccc(-c4c(OC(C)=O)c(OC(C)=O)c(-c5ccc(OC(C)=O)cc5)c(OC(C)=O)c4OC(C)=O)cc3O[C@]2([C@@H](C)CC)C(=O)N1OC(C)=O	0.031 µM	33.8 µM	24.1 µM	> 50 µM	> 50 µM	17.7 µM	> 50 µM	22.1 µM	28.5 µM	> 50 µM	> 50 µM
C=CCC(CNC(=O)OCc1ccccc1)OC(=O)OCc1ccccc1 (centres undefined)	> 100 µM	> 100 µM	> 100 µM	> 100 µM	> 100 µM	> 100 µM	> 100 µM	> 100 µM	> 100 µM	> 100 µM	> 100 µM
CCN(CC)CCC(=O)c1ccc(Oc2ccc(F)cc2)cc1	37.1 µM	28 µM	> 100 µM	34 µM	30.3 µM	31.9 µM	32.3 µM	28.8 µM	31.8 µM	32.7 µM	36.6 µM
O=C1c2cc([N+](=O)[O-])sc2C(=O)c2ccsc21	1.7 µM	0.948 µM	3.11 µM	0.641 µM	0.816 µM	0.433 µM	0.334 µM	0.225 µM	0.938 µM	0.779 µM	1.77 µM
O=[N+]([O-])c1cc(Cl)ccc1S(=O)(=O)N1CCCc2cc(Cl)ccc21	> 100 µM	> 100 µM	> 100 µM	83.7 µM	> 100 µM	> 100 µM	> 100 µM	> 100 µM	> 100 µM	> 100 µM	> 100 µM
C=CCN1CCC2(CC1)NC(=O)c1ccccc1O2	> 100 µM	> 100 µM	> 100 µM	> 100 µM	> 100 µM	> 100 µM	> 100 µM	> 100 µM	> 100 µM	> 100 µM	> 100 µM
CCOC(=O)CC[C@H](N)C(=O)N[C@H](Cc1ccc(N(CCCl)CCCl)cc1)C(=O)OCC	6.21 µM	5.32 µM	> 28.4 µM	> 49.2 µM	> 36.2 µM		> 47.7 µM	> 39.1 µM	8.83 µM	14.1 µM	15.9 µM
C=CC1(c2ccc(OC)cc2)OCCCO1	> 100 µM	> 100 µM	> 100 µM	> 100 µM	> 100 µM	> 100 µM	> 100 µM	> 100 µM	> 100 µM	> 100 µM	> 100 µM
COC(=O)[C@H](CCSC)NC(=O)c1ccc(CNC(=O)/C(C)=C/c2ccccc2)cc1	83.6 µM	41.8 µM	66.3 µM	52.7 µM	> 100 µM	> 100 µM	> 100 µM	> 100 µM	61.2 µM	> 100 µM	> 100 µM
COc1ccccc1NCC(=O)Nn1c(C)nc2ccc(S(=O)(=O)Nc3ccccc3OC)cc2c1=O	> 100 µM	> 100 µM	> 100 µM	> 100 µM	> 100 µM	> 100 µM	85.2 µM	> 100 µM	> 100 µM	> 100 µM	> 100 µM
CCCCCCCCCCCCCCCCP(=O)([O-])OCC[N+](C)(C)C	22 µM	19.9 µM	31.5 µM	32.7 µM	28 µM	29.3 µM	34.2 µM	29 µM	39.8 µM	29.7 µM	9.33 µM
CN(C)CCNc1nc2c(no[n+]2[O-])c2ccccc12	59.2 µM	99 µM	40.4 µM	34.1 µM	52.9 µM	41.4 µM	35.2 µM	35.1 µM	27.6 µM	46 µM	58.9 µM
CC1CC[C@@]2(OC1)OC1C[C@H]3[C@@H]4CCC5CC(O)CC[C@]5(C)[C@H]4C/C(=N\N(C)C)[C@]3(C)C1[C@@H]2C (some centres undefined)	45.6 µM	49.8 µM	45.6 µM	> 100 µM	60.3 µM	> 100 µM	58.2 µM	> 100 µM	60.9 µM	> 100 µM	85.2 µM
CCOP(=O)(OCC)C(C)(C)OC(=O)NC#N	> 100 µM	> 100 µM	> 100 µM	> 100 µM	> 100 µM	> 100 µM	> 100 µM	> 100 µM	> 100 µM	> 100 µM	> 100 µM
CC(=O)N(CN1C(=O)CCC1C(=O)O)c1ccccc1Cl (centres undefined)	> 100 µM	> 100 µM	> 100 µM	> 100 µM	> 100 µM	> 100 µM	> 100 µM	> 100 µM	> 100 µM	> 100 µM	> 100 µM
C=CCC(SC)C1=C(C)C(=O)c2ccccc21 (centres undefined)	> 10 µM	> 10 µM	> 10 µM	> 10 µM		> 10 µM	> 10 µM	> 10 µM	> 10 µM	> 10 µM	> 10 µM
